These results are taken from PubChem BioAssay AID248 (DTP/NCI, 2004).

Molecules are shown by their SMILES. Several values for one entry are separate records, joined by “and”; a condition that tells them apart may be missing. Equal values may be shown once. Inconclusive results and toxic doses are left out.

For this assay, the system named is L1210 leukemia ip in BDF1 mice, survival T/C. Nature of the assay: NCI In Vivo Anticancer Drug Screen. Data for tumor model L1210 Leukemia (intraperitoneal) in B6D2F1 (BDF1) mice. To be noted: endpoint: mean survival time, higher = longer survival. In outline: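 Antitumor effect is assessed in tumor-bearing animals. Survival in the compound arm is compared with a vehicle-dosed control arm and expressed as their quotient.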

Setting [1] is: dose: 100.0 mg/kg/injection, schedule: Q01DX001 (ip), vehicle: carboxymethylcellulose (CMC).
Where [2] appears, read: dose: 200.0 mg/kg/injection, schedule: Q01DX001 (ip), vehicle: carboxymethylcellulose (CMC).
The mark [3] stands for this setting: dose: 400.0 mg/kg/injection, schedule: Q01DX001 (ip), vehicle: carboxymethylcellulose (CMC).
The mark [4] stands for this setting: dose: 100.0 mg/kg/injection, schedule: Q01DX001 (ip), vehicle: saline.
Setting [5] is: dose: 200.0 mg/kg/injection, schedule: Q01DX001 (ip), vehicle: saline.
[6] abbreviates: dose: 400.0 mg/kg/injection, schedule: Q01DX001 (ip), vehicle: saline.
[7] abbreviates: dose: 100.0 mg/kg/injection, schedule: Q01DX009 (ip), vehicle: Klucel (hydroxypropylcellulose) (HPC).
Setting [8] is: dose: 100.0 mg/kg/injection, schedule: Q04DX003 (ip), vehicle: Klucel (hydroxypropylcellulose) (HPC).
[9] abbreviates: dose: 200.0 mg/kg/injection, schedule: Q04DX003 (ip), vehicle: Klucel (hydroxypropylcellulose) (HPC).
[10] abbreviates: dose: 400.0 mg/kg/injection, schedule: Q01DX009 (ip), vehicle: Klucel (hydroxypropylcellulose) (HPC).
[11] abbreviates: dose: 400.0 mg/kg/injection, schedule: Q04DX003 (ip), vehicle: Klucel (hydroxypropylcellulose) (HPC).

Consider `O=NN1CCN(c2ccccc2)C1=O`, for which the T/C (dose: 18.0 mg/kg/injection, schedule: Q01DX001 (ip), vehicle: carboxymethylcellulose (CMC)) is 94 % of control; the T/C (dose: 37.0 mg/kg/injection, schedule: Q01DX001 (ip), vehicle: carboxymethylcellulose (CMC)) was 96 % of control; the T/C (dose: 75.0 mg/kg/injection, schedule: Q01DX001 (ip), vehicle: carboxymethylcellulose (CMC)) was 102 % of control; the T/C under setting [1] was 98 % of control; the T/C (dose: 150.0 mg/kg/injection, schedule: Q01DX001 (ip), vehicle: carboxymethylcellulose (CMC)) was 98 % of control; the T/C under setting [2] was 104 % of control. Further, the T/C runs as follows: (dose: 250.0 mg/kg/injection, schedule: Q01DX001 (ip), vehicle: carboxymethylcellulose (CMC)) 96 % of control; (dose: 300.0 mg/kg/injection, schedule: Q01DX001 (ip), vehicle: carboxymethylcellulose (CMC)) 105 % of control; under setting [3], 98 % of control; (dose: 500.0 mg/kg/injection, schedule: Q01DX001 (ip), vehicle: carboxymethylcellulose (CMC)) 106 % of control; (dose: 600.0 mg/kg/injection, schedule: Q01DX001 (ip), vehicle: carboxymethylcellulose (CMC)) 91 % of control; (dose: 800.0 mg/kg/injection, schedule: Q01DX001 (ip), vehicle: carboxymethylcellulose (CMC)) 96 % of control.
Take `Cc1ccccc1Nc1ncnc2c1cnn2-c1ccccc1`: the T/C was 102 % of control under setting [4], 105 % of control under setting [5] and 115 % of control under setting [6].
The corresponding values for `CCOC(=O)CCCCC(N)=O` are 104 % of control, 102 % of control and 101 % of control.
On to `COC1(OC)C2(Cl)C(Cl)=C(Cl)C1(Cl)C1C(=O)C=CC(=O)C12` (stereo not drawn), for which the T/C is 104 % of control under setting [7]; 100 % of control under setting [8]; 98 % of control (dose: 100.0 mg/kg/injection, schedule: Q04DX003 (ip), vehicle: saline); 96 % of control (dose: 200.0 mg/kg/injection, schedule: Q01DX009 (ip), vehicle: Klucel (hydroxypropylcellulose) (HPC)); 98 % of control under setting [9]; 93 % of control (dose: 200.0 mg/kg/injection, schedule: Q04DX003 (ip), vehicle: saline). For the same compound, the T/C is, setting by setting: under setting [10], 98 % of control; under setting [11], 96 % of control; (dose: 400.0 mg/kg/injection, schedule: Q04DX003 (ip), vehicle: saline) 101 % of control.
In the case of `CC(=O)Nc1ccc(Cc2cc(=O)[nH]c(=O)[nH]2)cc1`, the T/C (dose: 9.38 mg/kg/injection, schedule: Q01DX001 (ip), vehicle: saline with Tween-80) was 106 % of control; the T/C (dose: 18.75 mg/kg/injection, schedule: Q01DX001 (ip), vehicle: saline with Tween-80) is 96 % of control; the T/C (dose: 37.5 mg/kg/injection, schedule: Q01DX001 (ip), vehicle: saline with Tween-80) was 104 % of control.
Consider `COC(=O)C(N)Cc1ccc(OC)c(N(CCCl)CCCl)c1` (stereo not drawn), for which the T/C is, setting by setting: (dose: 0.01 mg/kg/injection, schedule: Q01DX009 (ip), vehicle: saline) 106 % of control; (dose: 0.02 mg/kg/injection, schedule: Q01DX009 (ip), vehicle: saline) 116 % of control; (dose: 0.05 mg/kg/injection, schedule: Q01DX009 (ip), vehicle: saline) 110 % of control; (dose: 0.1 mg/kg/injection, schedule: Q01DX009 (ip), vehicle: saline) 121 % of control; (dose: 0.3 mg/kg/injection, schedule: Q01DX009 (ip), vehicle: saline) 155 % of control; (dose: 0.62 mg/kg/injection, schedule: Q01DX001 (ip), vehicle: saline) 106 % of control. Also, the T/C (dose: 1.25 mg/kg/injection, schedule: Q01DX001 (ip), vehicle: saline) is 98 % of control; the T/C (dose: 1.5 mg/kg/injection, schedule: Q01DX001 (ip), vehicle: carboxymethylcellulose (CMC)) is 115 % of control; the T/C (dose: 1.5 mg/kg/injection, schedule: Q01DX009 (ip), vehicle: saline) is 151 % of control; the T/C (dose: 2.5 mg/kg/injection, schedule: Q01DX001 (ip), vehicle: saline) was 106 % of control and 122 % of control; the T/C (dose: 2.9 mg/kg/injection, schedule: Q01DX001 (ip), vehicle: saline) was 105 % of control; the T/C (dose: 2.9 mg/kg/injection, schedule: Q01DX009 (ip), vehicle: saline) was 230 % of control. The T/C runs as follows: (dose: 3.0 mg/kg/injection, schedule: Q01DX001 (ip), vehicle: carboxymethylcellulose (CMC)) 120 % of control; (dose: 3.0 mg/kg/injection, schedule: Q01DX009 (ip), vehicle: saline) 123 % of control; (dose: 4.4 mg/kg/injection, schedule: Q01DX001 (ip), vehicle: saline) 104 % of control; (dose: 4.4 mg/kg/injection, schedule: Q01DX009 (ip), vehicle: saline) 108 % of control; (dose: 5.0 mg/kg/injection, schedule: Q01DX001 (ip), vehicle: saline) 111 % of control and 124 % of control; (dose: 6.0 mg/kg/injection, schedule: Q01DX001 (ip), vehicle: carboxymethylcellulose (CMC)) 108 % of control. Also, the T/C reads like this: (dose: 6.6 mg/kg/injection, schedule: Q01DX001 (ip), vehicle: saline) 109 % of control; (dose: 10.0 mg/kg/injection, schedule: Q01DX001 (ip), vehicle: saline) 107 % of control.
Consider `CC(C)=NN=C(C)C`, for which the T/C is, setting by setting: (dose: 12.5 mg/kg/injection, schedule: Q01DX001 (ip), vehicle: saline) 101 % of control; (dose: 12.5 mg/kg/injection, schedule: Q01DX009 (ip), vehicle: saline) 101 % of control; (dose: 25.0 mg/kg/injection, schedule: Q01DX001 (ip), vehicle: saline) 99 % of control; (dose: 25.0 mg/kg/injection, schedule: Q01DX009 (ip), vehicle: saline) 100 % of control; (dose: 25.0 mg/kg/injection, schedule: Q04DX003 (ip), vehicle: saline) 100 % of control; (dose: 50.0 mg/kg/injection, schedule: Q01DX001 (ip), vehicle: saline) 111 % of control. For the same compound, the T/C is 102 % of control (dose: 50.0 mg/kg/injection, schedule: Q04DX003 (ip), vehicle: saline) and 110 % of control under setting [4].
On to `Nc1c(Cl)ncn2c(=O)n(Cc3ccccc3)nc12`, for which the T/C under setting [1] was 96 % of control, the T/C under setting [2] is 105 % of control and the T/C under setting [3] is 105 % of control.
As to `CSc1n[nH]c(=O)[nH]c1=O`, the T/C runs as follows: under setting [4], 100 % of control; under setting [5], 102 % of control; under setting [6], 94 % of control.
In the case of `N#C/C(=C\c1ccco1)C1CCC([N+](=O)[O-])CC1` (stereo not drawn), the T/C (dose: 100.0 mg/kg/injection, schedule: Q04DX002 (ip), vehicle: Klucel (hydroxypropylcellulose) (HPC)) was 104 % of control; the T/C (dose: 200.0 mg/kg/injection, schedule: Q04DX002 (ip), vehicle: Klucel (hydroxypropylcellulose) (HPC)) was 104 % of control; the T/C (dose: 400.0 mg/kg/injection, schedule: Q04DX002 (ip), vehicle: Klucel (hydroxypropylcellulose) (HPC)) was 93 % of control.
For the compound `CCCCC(=O)N/N=C\c1cccc2ccccc12`, the T/C under setting [1] was 86 % of control, the T/C under setting [2] was 88 % of control and the T/C under setting [3] was 96 % of control.
Take `Cn1c2ccccc2c2cc3cnccc3cc21`: the T/C runs as follows: (dose: 37.5 mg/kg/injection, schedule: Q04DX003 (ip), vehicle: Klucel (hydroxypropylcellulose) (HPC)) 102 % of control; (dose: 75.0 mg/kg/injection, schedule: Q04DX003 (ip), vehicle: Klucel (hydroxypropylcellulose) (HPC)) 105 % of control; (dose: 150.0 mg/kg/injection, schedule: Q04DX003 (ip), vehicle: Klucel (hydroxypropylcellulose) (HPC)) 106 % of control; (dose: 300.0 mg/kg/injection, schedule: Q04DX003 (ip), vehicle: Klucel (hydroxypropylcellulose) (HPC)) 111 % of control.
`CC(=O)CC(=O)c1cc(C(C)=O)c(O)c(C(C)=O)c1`: the T/C was 101 % of control (dose: 50.0 mg/kg/injection, schedule: Q04DX003 (ip), vehicle: Klucel (hydroxypropylcellulose) (HPC)); 108 % of control under setting [8]; 103 % of control under setting [9]; 101 % of control under setting [11].
As for `CC(=O)Nc1ccc(OC(=O)Nc2ccccc2Cl)cc1`, the T/C reads like this: under setting [7], 101 % of control; under setting [8], 96 % of control; under setting [9], 95 % of control; under setting [10], 101 % of control; under setting [11], 95 % of control.
